One data set concerns Penicillium sp. The data set can be described thus: Growth of Penicillium sp. in vitro in the presence of pure volatiles. Conditions: for Penicillium fungal development delayed: after 7 days at 23° C. The format is cell-based. As to the method:
(§1) In accordance with still another embodiment of the present invention, growth of Penicillium sp. and Aspergillus Niger was evaluated in vitro in the presence of hexanal, acetaldehyde and 2E-hexenal. The fungistatic and fungicidal effects of the pure volatiles were evaluated and presented below.

For another data set, the system named is Botrytis cinerea. In words: Growth of B. cinerea exposed to volatile vapour in closed jars at 23° C. As to conditions: 7 days at 23° C.
For another data set, the system named is Colletotrichum acutatum. In words: Growth of C. acutatum exposed to volatile vapour in closed jars at 23° C. Conditions: 7 days at 23° C.; for concentration that completely inhibited / avoided C. acutatum growth: headspace concentration.
In a further data set the test system is Alternaria alternata. The data set can be described thus: Growth of A. alternata exposed to volatile vapour in closed jars at 23° C. Conditions: 7 days at 23° C.; for concentration that completely inhibited / avoided A. alternata growth: headspace concentration.
The subject of the next data set is Aspergillus Niger. The data set can be described thus: Growth of Aspergillus niger in vitro in the presence of pure volatiles. The format is cell-based. Conditions: 4 μL of volatile, after 7 days at room temperature. The procedure: as §1
The conditions of data set [1]: oral, mammalian; cited from earlier work.

We go through 3 molecules from patent publication US20070207981A1, “MICRO-ENCAPSULATION OF VOLATILE COMPOUNDS INTO CYCLODEXTRINS: A NEW TECHNOLOGY TO REDUCE POST HARVEST LOSSES” (priority 2006, published 2007).

Description for Alternaria alternata: (§2) Fourteen-day-old surface-plated cultures of Colletotricumn acutatum, Alternaria alternata and Botrytis cinerea in plastic Petri dishes (9 cm diameter), were filled aseptically with PDA medium (Potato Dextrose Agar) (Sigma-Aldrich Corp. (Saint Louis, Mo.)), and mixed with a few drops of sterile distilled water. Ten mL of each were collected inside plastic tubes which were shaken hard to dislodge spores from mycelia. The spores and cell suspensions were then filtered with sterile cheesecloth to remove debris such as mycelia and condensed-agar fragments and the aliquot was concentrated to 10^6 c.f.u./mL (spore*mL^−1), which were counted by the Neubauer improved method (Bright-Line Hemacytometer, Hausser Scientific, Horsham, Pa.).
(§3) Smaller Petri dishes (5.5 cm diameter) were also filled aseptically with PDA. Upon solidification of the agar medium, a drop of spores of each suspension was inserted as a drop in the centre of the well with a 100 μL Oxford Autoclavable Benchmate Pipette (Nichiryo, Japan). Finally, the Petri dishes were placed inside 1 L-glass jars which were closed with twist-off tops and stored at 23° C. These were used as the controls.
(§4) Other jars were modified for inserting and withdrawing of the volatiles obtained from the bioassays. For that, jars tops were modified by introducing a septum through which the volatile was inserted on a small piece of glass which was suspended 4 cm above the bottom. The same device was used to withdraw samples during storage. […]
(§5) Radial growth of the cultures in controls and treated samples were evaluated daily by measuring the surface area of the plate occupied by the colony during incubation or by measuring the length of the colony. […] Each assay was tested in triplicate and the area means calculated were analyzed statistically by analysis of variance. The delay in fungal growth was expressed as direct radial growth of cultures in cm^2 or cm as a percentage of colony growth by comparing samples exposed to the anti-fungal treatments with the controls. […]
Description for Botrytis cinerea: as §2, §3, §4, §5
Description for Colletotrichum acutatum: as §2, §3, §4, §5

Take `CCC/C=C/C=O` [2E-hexenal]: the Penicillium growth result with Penicillium sp. (1 μL of volatile, 1 week at 23° C.) is listed as “not able to grow”.
For `CCCCCC=O` [hexanal], in the data set on Penicillium sp. (insertion of 4 μL of volatile), the “Penicillium fungal development delayed” value is “over 18%”. Besides, in the data set with Penicillium sp. (insertion of 6 μL of volatile), the “Penicillium fungal development delayed” value is greater than 74%. For the same molecule, the “concentration that completely inhibited B. cinerea growth, equivalent ppm of volatile” value in the data set on Botrytis cinerea is given as 4 ppm. Moreover, in the data set on Botrytis cinerea (headspace concentration), the “concentration that completely inhibited B. cinerea growth” value is on record as 1.05 μg/mL air. For the same molecule, in the data set on Colletotrichum acutatum, the “concentration that completely inhibited C. acutatum growth, equivalent ppm of volatile” value is reported as 1.5 ppm and the “concentration that completely inhibited / avoided C. acutatum growth” value is recorded as 0.91 μg/mL air. Further, in the data set with Alternaria alternata, the “concentration that completely inhibited A. alternata growth, equivalent ppm of volatile” value worked out at 7 ppm and the “concentration that completely inhibited / avoided A. alternata growth” value worked out at 1.91 μg/mL air.
Regarding `CC=O` [acetaldehyde], the “A. niger delay in growth” value in the data set on Aspergillus Niger is reported as “over 66%”. For the same molecule, the “ORL-MAM LD50” value in data set [1] was 250 mg/kg. Moreover, the “prevention of B. cinerea growth” value in the data set with Botrytis cinerea (any amount tested) is given as “able to prevent”. In the data set on Colletotrichum acutatum, the “concentration that completely inhibited / avoided C. acutatum growth” value is listed as 0.44 μg/mL air. In the data set on Alternaria alternata, the “concentration that completely inhibited / avoided A. alternata growth” value came out at 0.10 μg/mL air.
